Earlier results on one molecule are cited in patent US20220370615A1, “Prevention of Illicit Manufacture of Methamphetamine from Pseudoephedrine Using Food Flavor Excipients” (Satara Pharmaceuticals, priority 2021, published 2022).

What is called LD50 is the dose at which mortality reaches 50%.

The conditions of this series: species and route not given.

With `CC(=O)c1cnccn1` [Acetylpyrazine], the LD50 is recorded as more than 4000 mg/kg.
